Reference: patent EP2092932A2, “Processes to pre-treat hair with organic solvents” (The Procter and Gamble Company, priority 2006, dated 2008)

Assay: Hair treatment protocol: solvent pre-treatment before oxidative dyeing, colour strength K/S measured by spectrophotometer
Conditions: for K/.S vs. DI Water: switch soaked 5 minutes in neat solvent, then level 3 oxidative hair colorant (Nice n' Easy) 30 minutes at 30°C, dye uptake change vs. DI water

Row | SMILES | K/S vs. DI Water (Glycerine Content 10 % wt. in deionised water as pre-treatment composition) | K/S vs. DI Water (Glycerine Content 25 % wt. in deionised water as pre-treatment composition) | K/S vs. DI Water (Glycerine Content 50 % wt. in deionised water as pre-treatment composition) | K/S vs. DI Water (Glycerine Content 70 % wt. in deionised water as pre-treatment composition) | K/.S vs. DI Water
1 | OCC(O)CO [Glycerine] | -2% | -4% | -20% | -43% | -40%
2 | OCCOCCO [Diethyleneglycol] |  |  |  |  | -50%
